# “Also recorded” adds a separate entry of the source.
# Columns and labels:
# [1] = tested on: estrogen responsive elements; conditions: in vitro; cited from earlier work
# TGFβ-2 mRNA = conditions: T-47D and MDA-MB-231; cited from earlier work
# LDL receptor promoter [2] = test: LDLR-Luc production in presence of ER (pLDLRLUC10 and pRSVER, HepG2 cells); type: cell-based, human; conditions: listed as estrogen
# Source text: (§1) A 1546 base pair sequence of the human LDL receptor promoter was amplified using the polymerase chain reaction. A reaction mixture containing 20 picomoles each of the synthetic oligonucleotides:
# (§2) The 1546 base pair fragment described above was isolated and cloned into the vector pSv2 containing firefly luciferase reporter gene that had been restriction enzyme digested to completion with NdeI and partially with HindIII. The resulting vector, pLDLRLUC10 contains the human LDL receptor promoter directing expression of the firefly luciferase gene, an ampicillin resistance marker and an origin of replication.
# ATCC strain HepG2 cells were co-transfected with pLDLRLUC10 and pRSVER as described in Example IV.
# TGFβ-3 promoter [3] = test: CAT reporter expression, TGFβ-3 promoter (pB-499), MG63 cells cotransfected with pRSVER
# Procedure: (§5) Co-transfection experiments were performed in MG63 (human osteosarcoma) cells, using the ProFection Mammalian Transfection System (Promega). […] The cells were then refed with fresh 3:1 media containing 10% csFBS. Compounds to be evaluated for their ability to modulate reporter gene expression were added at the appropriate times and assayed as described below.
# (§6) Cultures of MG63 cells were transiently co-transfected with pRSVER plasmid and either phTG12, pTGF-1, or pB2-499 using the ProFection system (Promega). For each transfected cell culture, DNA-containing calcium phosphate precipitates were added dropwise to each culture dish and mixed thoroughly in the media. The pH of the media was carefully maintained between pH 7.2 and pH 7.4. Transfected cell cultures were then incubated overnight in a 5% CO2 atmosphere at 37° C. For all cultures, the precipitate was removed after overnight incubation by aspirating the media from the culture dishes, followed by rinsing each dish twice with D-PBS. For each cotransfected cell line, the buffer was replaced with 10 ml fresh medium containing 10% csFBS and one of the following compositions:
# (§7) a. 10 μl ethanol (hormone vehicle)=control;
# (§8) b. 10 μl 17β-estradiol (Sigma) ("estradiol") at a concentration of 10^-4 M in ethanol;
# (§9) d. 10 μl Tamoxifen (Sigma) at a concentration of 10^-4 M in ethanol.
# (§10) After 24 h incubation with these hormonal preparations (or the vehicle control), cells were washed twice with D-PBS. The cells were then scraped from the culture dishes using a rubber policeman and 1 ml of D-PBS. Cells were collected by centrifugation at 8,000 rpm for 2 minutes in a tabletop centrifuge (MicroMax Model, IEC, Newark, N.Y.). The supernatant was removed and the cell pellets were resuspended in 150 μL of a 0.25M Tris-HCl solution (pH 7.8). Cells were lysed by three cycles of freezing in a dry ice/ethanol bath and thawing in a water bath at 37° C. water bath (for 3 minutes each cycle). Lysed cell preparations were centrifuged at 15,000 rpm for 5 minutes at 4° C. to remove cell debris. Supernatants containing the soluble cell lysate were transferred to a new set of tubes for assaying chloramphenicol acetyltransferase (CAT) activity.
# (§11) Before performing CAT assays on such cell lysates, the protein content of each lysate was first determined using a commercially-available assay (BioRad Laboratories, Richmond, Calif.). […]
# TGFβ-2 promoter = test: CAT reporter expression, TGFβ-2 promoter (pTGF-1), MG63 cells cotransfected with pRSVER; conditions: TGFβ-2 promoter
# Procedure: as §5, §6, §7, §8, §9, §10, §11
# LDL receptor promoter [4] = test: LDLR-Luc production in the absence of ER (pLDLRLUC10 and pRSV vector, HepG2 cells); type: cell-based, human; conditions: for LDLR-Luc production: no ER, 0 M 1597
# Source text: as §1, §2
# ATCC strain HepG2 cells were co-transfected with pLDLRLUC10 and pRSV vector plasmid as described in Example IV.
# TGFβ-1 mRNA = conditions: HEC-50, 1% ctFBS; cited from earlier work
# TGFβ-1 promoter = test: CAT reporter expression, TGFβ-1 promoter (phTG12), MG63 cells cotransfected with pRSVER
# Procedure: as §5, §6, §7, §8, §9, §10
# Before performing CAT assays on such cell lysates, the protein content of each lysate was first determined using a commercially-available assay (BioRad Laboratories, Richmond, Calif.). An amount of each cell lysate containing 100 μg total protein was then mixed with CAT assay buffer (0.4M Tris-HCl (pH 7.8)/ 0.5 mM acetyl-CoA (Boehringer Mannheim)/ 0.1 μCi D-threo-(dichloroacetyl-1,2-[^14 C]-chloramphenicol) for 15 hours. After this incubation, reactions were stopped by vigorously extracting the reaction mixture with 900 μL ethyl acetate. The organic and aqueous phases were separated by brief centrifugation at 14,000 rpm for 1 minute, and approximately 800 μL of the organic phase was transferred to a new set of tubes. Ethyl acetate was evaporated to concentrate the CAT-catalyzed reaction products.
# Acetylated and unacetylated chloramphenicol species were resolved by thin layer chromatography using a mixture of 95:5 (v/v) chloroform:methanol as the ascending buffer.
# TGFβ-3 promoter [5] = test: TGFβ-3 promoter transcription in RL59.2, HeLa and COS-1 cells; type: cell-based, human; conditions: RL59.2, HeLa and COS-1 (monkey kidney) cells
# Procedure: Similar assays were performed in human endometrial cancer cells (RL59.2), human cervical cancer cells (HeLa) and monkey kidney cells (COS-1) (American Type Culture Collection, Rockville, Md.).
# [6] = animal models and humans; cited from earlier work
# TGFβ-3 promoter [7] = test: ER dependent induction of TGFβ-3 promoter (pB2-499) in MG63 cells; type: cell-based, human
# Source text: It was known in the prior art that the ability of both estrogens and antiestrogens to influence TGFβ production is dependent on the expression of estrogen receptor (ER), but the level at which this influence is exerted was not known (i.e. transcriptional, translational or post-translational). A series of experiments were therefore performed to investigate the putative dependence on ER expression of induction of reporter gene expression using the TGFβ promoter-containing constructs of the invention.
# Cultures of MG63 were prepared for co-transfection as in Example IV. One such culture was co-transfected with pB2-499 and pRSVER and another was co-transfected with pB2499 and pRSV vector plasmid (as a control).
# (b) 17β-estradiol (10^-7 M)
# [8] = tested on: estrogen responsive element (ERE) of the vitellogenin promoter; test: Luciferase reporter induction, pGL2ERELUC (vitellogenin ERE) and pRSVER in MG63 cells; type: cell-based, human; conditions: for reporter gene expression, pGL2ERELUC: control 1.7
# Source text: Complementary oligonucleotides corresponding to the estrogen-responsive element (ERE) from the Xenopus laevis vitellogenin Az gene promoter (corresponding to positions -341 to -310; Metzger et al., 1988, Nature 334: 31-36) were designed, synthesized and annealed to form a double-stranded region that is an estrogen responsive element essentially as described in Example I. A sequence comprising an XhoI restriction enzyme recognition site was synthesized to be flanking the ERE sequences, the element having the following nucleotide sequence (shown as SEQ ID NOS:8 and 9, respectively):
# The double-stranded ERE was subcloned into XhoI-digested […] (Promega) whereby the luciferase gene was placed under the transcriptional influence of the ERE. This plasmid was designated pGL2ERELUC and used in further experiments as described below (Example VI).
# Similar assays were performed using cultures of MG63 cells transiently transfected with pGL2ERELUC and pRSVER.
# (§3) Transfected cells were treated with varying amounts and combinations of hormones and then rinsed twice with D-PBS. Cells were then lysed upon incubation with 250 μL of eukaryotic cell lysis reagent (as described in Example VI) at 4° C. for 20 min and transferred to microcentrifuge tubes by scraping with a rubber policeman. Cell lysates were centrifuged at 14,000 rpm for 1 minute to remove cell debris. Cell extracts (supernatant) were then assayed for protein content and luciferase activities.
# (§4) Luciferase assays were performed as follows. 50 μL of each cell extract was added to 100 μL of reagent A buffer (containing 4.0 mM ATP/15 mM MgSO4 / 30 mM tricine buffer (pH 7.8)/ 10 mM DTT) in individual wells of a microtiter plate. 100 μL of 1 mM D(-)-luciferin (in 0.1M KPO4 (pH 7.8); Boehringer Mannheim) were added to each well and the amount of light produced measured by using a ML3000 microtiter plate luminometer (under conditions of integrate flash mode, high gain, integrate window=10 seconds, at a temperature of 22° C.). Luciferase activities were calculated as total light output relative to protein content in each cell lysate sample.
# TGFβ-3 promoter [9] = test: Reporter induction, pB-301 (TGFβ-3 promoter) and pRSVER in MG63 cells; type: cell-based, human; conditions: control 0.7
# Procedure: These assays were performed essentially as in Example V.
# as §3, §4
# [10] = Homo sapiens, MG-63, 24 h, read-out: Fold Ind.
compound,measurement,setting,value
"C[C@]12CC[C@@H]3c4ccc(O)cc4CC[C@H]3[C@@H]1CC[C@@H]2O [estradiol, 17β-estradiol]",binding of estrogen receptor complex to estrogen responsive elements (in words),[1],bind in vitro to DNA binding domains called estrogen responsive elements
same,TGFβ-2 mRNA expression (in words),TGFβ-2 mRNA,reduced TGFβ-2 mRNA expression
same,induction of LDL receptor promoter/expression (in words),LDL receptor promoter [2],mediated by ER; also recorded: have the ability to induce LDL receptor expression
same,fold induction at 0.1 µM,TGFβ-3 promoter [3]; [10],2.8
same,Act. (relative CAT activity),"TGFβ-3 promoter [3]; TGFβ-3 promoter, 10 μl of 10^-4 M in 10 ml medium, 24 h, control 0.7",2.1
same,Act. (relative CAT activity),"TGFβ-2 promoter; 10 μl of 10^-4 M in 10 ml medium, 24 h, control 0.8",1.29
same,Fold Ind.,"TGFβ-2 promoter; comparison with control, 1440 min, 0.1 µM",1.6 fold
same,induction of LDLR promoter without ER (in words),"LDL receptor promoter [4]; at or below 10^-6 M, or high concentrations as worded, FIG. 16",No induction
same,LDLR-Luc production,LDL receptor promoter [4]; 10^-5 M,2445
same,LDLR-Luc production,LDL receptor promoter [4]; 10^-6 M,1578
same,LDLR-Luc production,LDL receptor promoter [4]; 10^-7 M,1574
same,LDLR-Luc production,LDL receptor promoter [4]; 10^-8 M,1792
same,LDLR-Luc production,LDL receptor promoter [4]; 10^-9 M,1645
same,TGFβ-1 mRNA concentration (in words),TGFβ-1 mRNA,Decreased concentrations of TGFβ-1 mRNA
same,fold induction at 0.1 µM,TGFβ-1 promoter; [10],0.7
same,Act. (relative CAT activity),"TGFβ-1 promoter; TGFβ-1 promoter, 10 μl of 10^-4 M in 10 ml medium, 24 h, control […]",4.7
same,response of the TGFβ-1 promoter region (in words),TGFβ-1 promoter; positions -1032 to +727,no response
same,transcription initiated by the TGFβ-3 promoter (in words),TGFβ-3 promoter [5],induced
same,serum lipid lowering effect (in words),[6],serum lipid lowering effect
same,effect of lack of ER expression (in words),TGFβ-3 promoter [7]; lack of ER expression,virtually abolishes expression of TGFβ-3
same,"reporter gene expression, Control Plasmid","TGFβ-3 promoter [7]; no ER (pRSV vector), estradiol 10^-7 M, raloxifene 2×10^-6 M, vehicle 0.9",1.0
same,"reporter gene expression, ER Expression Plasmid","TGFβ-3 promoter [7]; pRSVER, estradiol 10^-7 M, raloxifene 2×10^-6 M, vehicle 1.3",4.6
same,induction of vitellogenin gene transcription (in words),[8],strongly induced
same,"reporter gene expression, pGL2ERELUC",[8]; 10^-5 M,6.5
same,"reporter gene expression, pGL2ERELUC",[8]; 10^-6 M,6.2
same,"reporter gene expression, pGL2ERELUC",[8]; 10^-7 M,5.9
same,"reporter gene expression, pGL2ERELUC",[8]; 10^-8 M,5.5
same,"reporter gene expression, pGL2ERELUC",[8]; 10^-9 M,5.8
same,"reporter gene expression, pB-301",TGFβ-3 promoter [9]; 10^-5 M,8.0
same,"reporter gene expression, pB-301",TGFβ-3 promoter [9]; 10^-6 M,5.2
same,"reporter gene expression, pB-301",TGFβ-3 promoter [9]; 10^-7 M,5.5
same,"reporter gene expression, pB-301",TGFβ-3 promoter [9]; 10^-8 M,3.2
same,"reporter gene expression, pB-301",TGFβ-3 promoter [9]; 10^-9 M,1.1

# From US5445941A, “Method for screening anti-osteoporosis agents” (Eli Lilly and Company, priority 1993, dated 1995)
